Reference: ChEMBL document CHEMBL3991601, “The target landscape of clinical kinase drugs” (Science, 2017)
Active and inactive are the calls of the source.

How the values were obtained:
[1] = target: T1, Acyl-CoA dehydrogenase family member 10 (Homo sapiens, UniProt Q6JQN1)
T1 sequence (Q6JQN1 whole entry): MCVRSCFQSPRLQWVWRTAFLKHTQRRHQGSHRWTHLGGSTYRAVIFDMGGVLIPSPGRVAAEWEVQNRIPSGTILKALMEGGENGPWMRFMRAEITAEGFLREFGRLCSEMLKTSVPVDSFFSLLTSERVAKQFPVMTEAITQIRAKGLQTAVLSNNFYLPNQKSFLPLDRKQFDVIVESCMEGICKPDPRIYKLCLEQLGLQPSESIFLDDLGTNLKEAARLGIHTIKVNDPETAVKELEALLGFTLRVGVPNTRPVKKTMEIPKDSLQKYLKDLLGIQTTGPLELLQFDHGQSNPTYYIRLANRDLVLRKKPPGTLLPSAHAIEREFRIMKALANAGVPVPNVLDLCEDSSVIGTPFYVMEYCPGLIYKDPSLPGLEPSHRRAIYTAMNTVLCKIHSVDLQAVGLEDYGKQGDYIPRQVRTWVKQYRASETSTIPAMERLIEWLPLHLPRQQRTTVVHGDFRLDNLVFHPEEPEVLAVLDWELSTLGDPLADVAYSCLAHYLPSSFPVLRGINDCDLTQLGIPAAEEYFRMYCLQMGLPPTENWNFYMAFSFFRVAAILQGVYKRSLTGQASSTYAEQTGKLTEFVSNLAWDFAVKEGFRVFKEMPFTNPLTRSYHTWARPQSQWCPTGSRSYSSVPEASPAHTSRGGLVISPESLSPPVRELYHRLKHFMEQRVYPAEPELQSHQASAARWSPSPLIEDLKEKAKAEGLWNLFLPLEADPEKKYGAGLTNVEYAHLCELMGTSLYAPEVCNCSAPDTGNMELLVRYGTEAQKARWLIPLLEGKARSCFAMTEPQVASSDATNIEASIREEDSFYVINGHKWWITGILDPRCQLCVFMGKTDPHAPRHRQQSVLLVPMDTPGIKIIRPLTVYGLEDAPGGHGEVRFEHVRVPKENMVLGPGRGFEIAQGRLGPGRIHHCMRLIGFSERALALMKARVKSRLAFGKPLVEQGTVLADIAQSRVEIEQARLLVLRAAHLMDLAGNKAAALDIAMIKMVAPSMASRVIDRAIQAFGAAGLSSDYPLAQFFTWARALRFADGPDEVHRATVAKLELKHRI

[2] = target: Insulin-like growth factor 1 receptor (Homo sapiens, UniProt P08069)
Insulin-like growth factor 1 receptor, sequence (P08069 31-736 limits assumed): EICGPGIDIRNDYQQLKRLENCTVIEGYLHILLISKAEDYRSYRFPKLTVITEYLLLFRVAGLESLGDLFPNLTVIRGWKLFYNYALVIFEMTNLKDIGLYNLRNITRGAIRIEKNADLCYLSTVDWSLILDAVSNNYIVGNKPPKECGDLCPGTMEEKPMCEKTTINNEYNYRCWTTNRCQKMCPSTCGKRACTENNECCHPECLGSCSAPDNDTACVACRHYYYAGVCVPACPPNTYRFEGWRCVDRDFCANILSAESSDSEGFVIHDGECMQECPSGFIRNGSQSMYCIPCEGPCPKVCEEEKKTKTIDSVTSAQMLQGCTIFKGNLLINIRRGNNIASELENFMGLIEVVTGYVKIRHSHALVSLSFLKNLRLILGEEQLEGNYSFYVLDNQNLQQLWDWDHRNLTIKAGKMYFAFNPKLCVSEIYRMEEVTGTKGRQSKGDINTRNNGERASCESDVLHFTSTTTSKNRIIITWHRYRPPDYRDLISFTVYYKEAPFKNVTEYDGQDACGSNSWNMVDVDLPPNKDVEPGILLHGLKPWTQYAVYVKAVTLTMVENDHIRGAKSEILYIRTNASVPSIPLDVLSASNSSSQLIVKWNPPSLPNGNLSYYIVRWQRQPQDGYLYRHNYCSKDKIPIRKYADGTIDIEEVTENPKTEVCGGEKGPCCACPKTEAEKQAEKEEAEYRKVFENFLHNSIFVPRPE
Insulin-like growth factor 1 receptor, sequence (P08069 741-1367 limits assumed): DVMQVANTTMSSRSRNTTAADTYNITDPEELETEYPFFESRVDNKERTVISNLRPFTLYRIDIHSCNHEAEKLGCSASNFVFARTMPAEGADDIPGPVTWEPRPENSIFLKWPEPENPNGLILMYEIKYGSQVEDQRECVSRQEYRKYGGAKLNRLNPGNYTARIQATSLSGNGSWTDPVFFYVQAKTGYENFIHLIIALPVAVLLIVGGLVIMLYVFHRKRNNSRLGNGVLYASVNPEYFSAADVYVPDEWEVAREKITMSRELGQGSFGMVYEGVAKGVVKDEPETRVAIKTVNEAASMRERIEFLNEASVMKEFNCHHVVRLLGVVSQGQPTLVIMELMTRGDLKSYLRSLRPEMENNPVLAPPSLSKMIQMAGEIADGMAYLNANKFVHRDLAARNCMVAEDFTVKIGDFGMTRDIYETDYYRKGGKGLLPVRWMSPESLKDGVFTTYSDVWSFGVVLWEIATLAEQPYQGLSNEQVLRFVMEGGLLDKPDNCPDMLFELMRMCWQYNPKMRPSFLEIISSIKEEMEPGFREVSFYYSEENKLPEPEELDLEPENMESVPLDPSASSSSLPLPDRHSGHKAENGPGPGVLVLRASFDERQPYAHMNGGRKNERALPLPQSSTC

[3] = target: Dual specificity mitogen-activated protein kinase kinase 2 (Homo sapiens, UniProt P36507)
Dual specificity mitogen-activated protein kinase kinase 2, sequence (P36507 whole entry): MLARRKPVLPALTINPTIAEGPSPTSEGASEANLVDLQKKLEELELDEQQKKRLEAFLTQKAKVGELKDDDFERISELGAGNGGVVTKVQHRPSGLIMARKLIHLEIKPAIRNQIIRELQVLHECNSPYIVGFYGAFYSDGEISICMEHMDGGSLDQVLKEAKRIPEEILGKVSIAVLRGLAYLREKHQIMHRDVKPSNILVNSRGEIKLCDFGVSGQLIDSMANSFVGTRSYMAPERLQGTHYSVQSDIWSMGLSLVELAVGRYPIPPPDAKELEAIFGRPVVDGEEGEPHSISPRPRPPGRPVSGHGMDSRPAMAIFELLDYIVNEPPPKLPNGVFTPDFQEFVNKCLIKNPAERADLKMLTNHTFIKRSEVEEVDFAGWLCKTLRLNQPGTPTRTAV

Deoxycytidine kinase = Deoxycytidine kinase (Homo sapiens, UniProt P27707)
Deoxycytidine kinase, sequence (P27707 whole entry): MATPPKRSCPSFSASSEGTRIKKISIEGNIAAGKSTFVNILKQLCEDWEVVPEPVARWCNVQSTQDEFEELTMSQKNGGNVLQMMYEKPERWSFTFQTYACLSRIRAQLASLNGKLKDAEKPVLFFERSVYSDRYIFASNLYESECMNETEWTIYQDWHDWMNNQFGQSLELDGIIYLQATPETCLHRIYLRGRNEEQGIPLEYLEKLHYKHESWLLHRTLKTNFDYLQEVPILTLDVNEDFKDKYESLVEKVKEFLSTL

Ephrin type-B receptor 2 = target: T2, Ephrin type-B receptor 2 (Homo sapiens, UniProt P29323)
T2 sequence (P29323 whole entry): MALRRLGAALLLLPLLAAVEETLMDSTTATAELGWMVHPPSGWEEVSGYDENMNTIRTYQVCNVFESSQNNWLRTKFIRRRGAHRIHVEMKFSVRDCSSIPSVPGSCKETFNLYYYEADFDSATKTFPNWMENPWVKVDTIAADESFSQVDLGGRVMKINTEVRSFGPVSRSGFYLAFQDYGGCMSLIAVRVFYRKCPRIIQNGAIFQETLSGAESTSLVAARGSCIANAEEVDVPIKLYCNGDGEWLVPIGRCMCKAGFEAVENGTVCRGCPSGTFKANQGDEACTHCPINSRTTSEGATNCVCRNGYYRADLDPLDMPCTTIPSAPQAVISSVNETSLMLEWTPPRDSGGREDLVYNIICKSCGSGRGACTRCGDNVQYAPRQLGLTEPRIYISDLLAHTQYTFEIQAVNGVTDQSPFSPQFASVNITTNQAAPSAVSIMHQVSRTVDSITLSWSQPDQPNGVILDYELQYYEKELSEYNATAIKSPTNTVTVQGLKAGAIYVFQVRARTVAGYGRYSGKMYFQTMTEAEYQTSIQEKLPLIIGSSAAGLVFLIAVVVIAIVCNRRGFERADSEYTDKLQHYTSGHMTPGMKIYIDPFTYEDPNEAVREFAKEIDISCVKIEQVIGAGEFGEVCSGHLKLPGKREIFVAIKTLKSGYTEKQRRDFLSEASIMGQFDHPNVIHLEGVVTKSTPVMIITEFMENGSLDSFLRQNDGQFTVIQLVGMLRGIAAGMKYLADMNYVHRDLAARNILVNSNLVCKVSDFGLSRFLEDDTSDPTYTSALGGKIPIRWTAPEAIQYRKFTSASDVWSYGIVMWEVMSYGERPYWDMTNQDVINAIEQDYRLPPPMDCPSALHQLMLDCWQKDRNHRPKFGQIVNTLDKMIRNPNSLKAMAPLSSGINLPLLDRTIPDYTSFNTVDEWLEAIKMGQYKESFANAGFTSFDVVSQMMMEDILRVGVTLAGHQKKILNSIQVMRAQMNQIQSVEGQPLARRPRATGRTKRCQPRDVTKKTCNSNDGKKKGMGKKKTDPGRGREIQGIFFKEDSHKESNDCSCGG
Note: in the data inactive means no Kd found up to 30 µM.

| Kd [1] | Kd [2] | Kd [3] | Kd (Deoxycytidine kinase) | Kd (Ephrin type-B receptor 2) | SMILES |
| --- | --- | --- | --- | --- | --- |
| > 30 µM (inactive) | > 30 µM (inactive) | > 30 µM (inactive) | > 30 µM (inactive) | > 30 µM (inactive) | Cn1cc(-c2ccc3nnc(C(F)(F)c4ccc5ncccc5c4)n3n2)cn1 [JNJ-38877605] |
| > 30 µM (inactive) | > 30 µM (inactive) | > 30 µM (inactive) | > 30 µM (inactive) | > 30 µM (inactive) | C[C@@H]1CN(Cc2ccc(F)cc2)[C@@H](C)CN1C(=O)c1cc2c(C(=O)C(=O)N(C)C)cn(C)c2cc1Cl [TALMAPIMOD] |
| > 30 µM (inactive) | > 30 µM (inactive) | > 30 µM (inactive) | > 30 µM (inactive) | > 30 µM (inactive) | C1=C/COCc2cc(ccc2OCCN2CCCC2)Nc2nccc(n2)-c2cccc(c2)COC/1 [PACRITINIB] |
| > 30 µM (inactive) | > 30 µM (inactive) | > 30 µM (inactive) | > 30 µM (inactive) | > 30 µM (inactive) | CNC(=O)c1ccc(-c2cnc3ncc(Cc4ccc5ncccc5c4)n3n2)cc1F [CAPMATINIB] |
| > 30 µM (inactive) | > 30 µM (inactive) | > 30 µM (inactive) | > 30 µM (inactive) | 2.28 µM | CNC(=O)CN1CCC(Oc2cc3c(Nc4cccc(Cl)c4F)ncnc3cc2OC)CC1 [SAPITINIB] |
| > 30 µM (inactive) | > 30 µM (inactive) | > 30 µM (inactive) | > 30 µM (inactive) | > 30 µM (inactive) | Cc1ccc(S(=O)(=O)Nc2nc3ccccc3nc2Nc2ccc3nsnc3c2)cc1 |
| > 30 µM (inactive) | > 30 µM (inactive) | > 30 µM (inactive) | > 30 µM (inactive) | > 30 µM (inactive) | COc1cc2nccc(Oc3ccc(NC(=O)NC4CC4)c(Cl)c3)c2cc1C(N)=O [LENVATINIB] |
| > 30 µM (inactive) | > 30 µM (inactive) | > 30 µM (inactive) | > 30 µM (inactive) | > 30 µM (inactive) | N[C@@H]1CCCN(c2c(/C=C3\SC(=O)NC3=O)cccc2-c2ccccc2)C1 |
| > 30 µM (inactive) | > 30 µM (inactive) | > 30 µM (inactive) | > 30 µM (inactive) | > 30 µM (inactive) | CNC(=O)c1cc(Oc2ccc(NC(=O)Nc3ccc(Cl)c(C(F)(F)F)c3)c(F)c2)ccn1 [REGORAFENIB] |
| > 30 µM (inactive) | > 30 µM (inactive) | > 30 µM (inactive) | > 30 µM (inactive) | 0.448 µM (active) | COc1cc2nccc(Oc3ccc(NC(=O)Nc4cc(C)on4)c(Cl)c3)c2cc1OC [TIVOZANIB] |
| > 30 µM (inactive) | > 30 µM (inactive) | > 30 µM (inactive) | > 30 µM (inactive) | 53.2 µM (active) | Cc1ccc(NC(=O)c2ccc(CN3CC[C@H](N(C)C)C3)c(C(F)(F)F)c2)cc1Nc1nccc(-c2cncnc2)n1 [BAFETINIB] |
| > 30 µM (inactive) | > 30 µM (inactive) | > 30 µM (inactive) | > 30 µM (inactive) | > 30 µM (inactive) | Cn1cc(-c2ccc(F)c(C(F)(F)F)c2)nc1C1CCN(c2ncnc3[nH]ncc23)CC1 [LY-2584702] |
| > 30 µM (inactive) | > 30 µM (inactive) | > 30 µM (inactive) | > 30 µM (inactive) | > 30 µM (inactive) | CCS(=O)(=O)N1CC(CC#N)(n2cc(-c3ncnc4[nH]ccc34)cn2)C1 [BARICITINIB] |
| > 30 µM (inactive) | > 30 µM (inactive) | > 30 µM (inactive) | > 30 µM (inactive) | > 30 µM (inactive) | O=C(Nc1ccc(-c2ccnc(Nc3ccc(N4CCOCC4)cc3)n2)cc1)C1CCCN1 (stereo not given) [XL-019] |
| > 30 µM (inactive) | > 30 µM (inactive) | > 30 µM (inactive) | > 30 µM (inactive) | > 30 µM (inactive) | COc1cc(CCc2cc(NC(=O)c3ccc(N4C[C@@H](C)N[C@@H](C)C4)cc3)n[nH]2)cc(OC)c1 [AZD-4547] |
| > 30 µM (inactive) | > 30 µM (inactive) | > 30 µM (inactive) | > 30 µM (inactive) | > 30 µM (inactive) | COc1cc(OC)c(/C=C/S(=O)(=O)Cc2ccc(OC)c(NCC(=O)O)c2)c(OC)c1 [RIGOSERTIB] |
| > 30 µM (inactive) | > 30 µM (inactive) | > 30 µM (inactive) | > 30 µM (inactive) | > 30 µM (inactive) | CN1CCC(CNc2ccc3ncc(-c4cccc(OC(F)(F)F)c4)n3n2)CC1 [SGI-1776] |
| > 30 µM (inactive) | > 30 µM (inactive) | > 30 µM (inactive) | > 30 µM (inactive) | > 30 µM (inactive) | Cc1c(F)cc(C(=O)NC2CC2)cc1-c1ccc(C(=O)NCC(C)(C)C)cn1 [LOSMAPIMOD] |
| > 30 µM (inactive) | > 30 µM (inactive) | > 30 µM (inactive) | > 30 µM (inactive) | > 30 µM (inactive) | CC[C@@H]1C(=O)N(C)c2cnc(Nc3ccc(C(=O)N[C@H]4CC[C@H](N5CCN(CC6CC6)CC5)CC4)cc3OC)nc2N1C(C)C [VOLASERTIB] |
| > 30 µM (inactive) | > 30 µM (inactive) | > 30 µM (inactive) | > 30 µM (inactive) | > 30 µM (inactive) | C[C@@H](c1ccc2nccn2c1)n1nnc2ncc(-c3cnn(C)c3)nc21 [SAVOLITINIB] |
| > 30 µM (inactive) | > 30 µM (inactive) | > 30 µM (inactive) | > 30 µM (inactive) | > 30 µM (inactive) | Cc1cc([C@@H](C)Nc2ccccc2C(=O)O)c2nc(N3CCOCC3)cc(=O)n2c1 [AZD-6482] |
| > 30 µM (inactive) | > 30 µM (inactive) | > 30 µM (inactive) | > 30 µM (inactive) | > 30 µM (inactive) | COCCNCc1ccc(-c2cc3nccc(Oc4ccc(NC(=S)NC(=O)Cc5ccc(F)cc5)cc4F)c3s2)nc1 [GLESATINIB] |
| > 30 µM (inactive) | > 30 µM (inactive) | > 30 µM (inactive) | > 30 µM (inactive) | > 30 µM (inactive) | CCn1c(=O)c(-c2cc[nH]n2)cc2c(C)nc(N)nc21 [VOXTALISIB] |
| > 30 µM (inactive) | > 30 µM (inactive) | > 30 µM (inactive) | > 30 µM (inactive) | > 30 µM (inactive) | COc1ccc(-c2ccc3c(N4CCOC[C@@H]4C)nc(N4CCOC[C@@H]4C)nc3n2)cc1CO [AZD-8055] |

| SMILES | Kd [1] | Kd [2] | Kd [3] | Kd (Deoxycytidine kinase) | Kd (Ephrin type-B receptor 2) |
| --- | --- | --- | --- | --- | --- |
| CN1CCC(COc2cnc(-c3cccc(Cn4nc(-c5cccc(C#N)c5)ccc4=O)c3)nc2)CC1 [TEPOTINIB] | > 30 µM (inactive) | > 30 µM (inactive) | > 30 µM (inactive) | > 30 µM (inactive) | > 30 µM (inactive) |
| O=C(c1ccc(F)c(F)c1Nc1ccc(I)cc1F)N1CC(O)([C@@H]2CCCCN2)C1 [COBIMETINIB] | > 30 µM (inactive) | > 30 µM (inactive) | 0.022 µM (active) | > 30 µM (inactive) | > 30 µM (inactive) |
